Measurements: patent US20080227870A1, “Carcinogen Solvents in Reducing the Carcinogen Concentration of Cells” (priority 2004, published 2008)

System: human fibroplasts
Assay: Membrane integrity test with a vital dye after exposure to perfluorocarbon liquid
Type: cell-based
Conditions: biological compatibility statement for the used examples

Which “toxicity to the cell” value does the source give for `FC1(F)C(F)(F)C(F)(F)C2(F)C(F)(F)C(F)(F)C(F)(F)C(F)(F)C2(F)C1(F)F` (centres unmarked) [perfluorodecalin] here?
The value was “non-toxic”.

Which “toxicity to the cell” value does the source give for `FC(F)(F)C(F)(F)C(F)(F)C(F)(F)C(F)(F)C(F)(F)C(F)(F)C(F)(F)Br` [perfluorooctylbromide] here?
Its value is “non-toxic”.
